This note sets out measurements from patent US9705096B2, “Organic transistor, compound, organic semiconductor material for non-light-emitting organic semiconductor device, material for organic transistor, coating solution for non-light-emitting organic semiconductor device, organic semiconductor film for non-light-emitting organic semiconductor device, …” (FUJIFILM Corporation, priority 2014, dated 2017).

This data set is described as follows: Solubility in toluene. The class given is physicochemical. To be noted: organic solvent or mixture, thermodynamic from solid; 20 mg compound mixed with toluene (1 mL). The source says:
A: The compound was completely dissolved.
B: A bit of the compound was left undissolved.
C: Most of the compound was left undissolved.
For `CCc1cc2sc3cc4sc5cc(CC)sc5c4cc3c2s1` [Comparative compound 1, reference compound], the solubility was under 20 mg/mL.

For `CC(C)CCCC(C)CCc1cc2sc3cc4sc5cc(CCC(C)CCCC(C)C)sc5c4cc3c2s1` (stereo not drawn) [Compound 31], the solubility was over 20 mg/mL.

Turning to `CC(C)CCCC(C)CCc1ccc(-c2cc3sc4cc5sc6cc(-c7ccc(CCC(C)CCCC(C)C)s7)sc6c5cc4c3s2)s1` (stereo not drawn) [Compound 33], the solubility was over 20 mg/mL.

As a reminder, the solubility is how much of the substance goes into solution per volume.
